According to patent US20230088528A1, “USE OF LIPID IN PREPARATION OF NUCLEIC ACID DELIVERY REAGENT AND RELATED PRODUCT THEREOF” (INSTITUTE OF BASIC MEDICAL SCIENCES CHINESE ACADEMY OF …, priority 2019, published 2023):

Legend:
[1] = In vivo delivery of lipid-nucleic acid mixture (PGY-sRNA-26) by gavage, relative intake in blood and tissues by RT-qPCR; design: species or system C57BL/6 male mice; conditions: for oral delivery of sRNA single-chain nucleic acid into the blood, and lung, kidney, spleen, heart, and intestinal tissue of mice / oral delivery of sRNA single-chain nucleic acid into the blood, and lung, kidney, spleen, and heart tissues of mice: 100 μg lipid:1 nmol PGY-sRNA-26 per mouse, 12 hrs after gavage, vs free intake group; for number of organs into which nucleic acid is significantly delivered: among the 6 organs in the experiments
Experimental: The concentration of a lipid solution in chloroform was 10 mg/ml (stock solution), and grouping was performed according to the lipid compound number.
(§1) 1 nmol of small RNA (as shown in Table 2) was dissolved in 400 μl of DEPC-treated water in a glass tube, and 10 μl of a corresponding lipid stock solution was added, to give a system containing 100 μg of lipid. The system was well mixed, heated for 15 min in a water bath at 90° C., and then naturally cooled, to obtain a lipid-nucleic acid mixture of the lipid and small RNA.
(§2) The C57BL/6 male mice used in the experiment were purchased from Beijing Vital River Laboratory Animal Technology Co., Ltd., about 6 weeks old, and weighed 20-24 g. They were kept in an SPF animal room of the Animal Center of the Institute of Basic Medical Sciences, Chinese Academy of Medical Sciences. The mice were fasted for 12 hrs before gavage.
(§3) The lipid-nucleic acid mixture was prepared following the method as described in Example 2. The prepared lipid-nucleic acid mixture was orally administered at a dose of 100 μg lipid:1 nmol single-stranded small RNA PGY-sRNA-26 per mouse.
1) Blank group: Mice (n=4) were given 500 μl of normal saline by gavage, and this group served as a blank control group;
2) Free intake group: Mice (n=4) were given sRNA solution (1 nmol/animal, 500 μl) by direct gavage, and this group served as a negative control group;
3) Lipid treatment group: Mice (n=4) were given 500 μl of the lipid-nucleic acid mixture prepared in step 2 by gavage.
12 hrs after gavage in each group of mice, 500 μl of blood was taken from the eyeball, and 1.5 ml of Trizol Reagent LS (purchased from Invitrogen) was added and mixed well for lysis. The tissue sample was added with 3 ml of Trizol Reagent LS. and homogenized for full lysis, wherein the tissue sample included lung/kidney/spleen/heart/gut. 1 ml of blood or tissue lysate was taken and RNA was extracted according to the following steps.
The blood or tissue lysate was centrifuged at 4° C., and 12,000 rpm for 5 min, the pellet was discarded, and Trizol was transferred to a new centrifuge tube.
Chloroform was added in an amount of 200 μL chloroform/mL Trizol, shaken fully until uniform, and allowed to stand at room temperature for 5 min.
The sample was centrifuged at 4° C., and 12,000 rpm, for 15 min.
The upper aqueous phase was pipetted to another centrifuge tube, and isopropanol was added in an amount of 0.4 mL isopropanol/mL Trizol, mixed well, and allowed to stand at a low temperature for 10-20 min.
The sample was centrifuged at 4° C., and 12,000 rpm, for 15 min, the supernatant was discarded, and the RNA pellet was at the bottom of the tube.
1 mL of 75% ethanol was added, and the centrifuge tube was shaken gently, to suspend the pellet.
The sample was centrifuged at 4° C., and 12,000 rpm, for 10 min, the supernatant was discarded, 1 mL of 75% ethanol was added, and the centrifuge tube was shaken gently, to suspend the pellet.
The sample was centrifuged at 4° C., and 12,000 rpm, for 10 min, the supernatant was discarded, and the sample was air dried at room temperature. The RNA sample was dissolved in 50-100 μL of RNase-free H2O, and the RNA concentration was quantified by determining the OD value.
The sRNA was reversely transcribed into cDNA using a reverse transcription kit (High-Capacity cDNA Reverse Transcription Kits, Applied Biosystems, cat. no. 4368813), following the stem-loop method (see, for example Real-time quantification of microRNAs by stem-loop RT-PCR, Nucleic Acids Res. 2005 Nov. 27; 33(20):e179, incorporated herein by reference). System for reverse transcription: template RNA (200 ng/μL) 10 μL, 10×RT buffer 2.0 μL, 25×dNTP Mix (100 mM) 0.8 μL, U6 RT stem-loop primer 2.0 μL, PGY-sRNA-26 RT stem-loop primer 2.0 μL, MultiScribe™ reverse transcriptase 1.0 μL, RNAase inhibitor 1.0 μL, and nuclease-free water H2O 1.2 μL. […]

[2] = Pharmacokinetic study of lipid-nucleic acid mixture, tail vein injection group, relative amount of PGY-sRNA-26 delivered to organs over time; assay type: in vivo, C57BL/6 male mice; conditions: injection via the tail vein; sampled at 3, 6, 9, 12, 24 hrs
Experimental: as §1, §2
as §3, with “administered or injected via the tail vein” for “administered”, “mouse. The oral dose was half that of the tail vein injection.” for “mouse.”
(§4) 1) Blank group: Mice (n=6) were given 500 μl of normal saline by gavage, and this group served as a blank control group;
3) Intravenous injection group: Mice (n=15) were given 100 μl of the lipid-nucleic acid mixture prepared in step 2 by injection via the tail vein.
(§5) At 3 hrs, 6 hrs, 9 hrs, 12 hrs and 24 hrs after administration in the gavage group and the intravenous injection group, 3 mice were taken and the RNA was extracted from each organ according to the method in Example 3.
(§6) The RNA extracted from each organ was reverse transcribed into cDNA according to the method in Example 3.
(§7) A quantitative PCR amplification reaction was performed according to the method in Example 3.
(§8) 3.5. The Relative Expression Level was Calculated by the 2-ΔCt Method.
(§9) FIGS. 46-49 respectively show the results of delivering single-stranded small RNA PGY-sRNA-26 into different target tissues at various time points by gavage using lipids 93, 94, 96, and 100. FIGS. 50-54 respectively show the results of delivering single-stranded small RNA PGY-sRNA-26 into different target tissues at various time points by injection via the tail vein using lipids 94, 96, 98, 100, and 101.

[3] = Pharmacokinetic study of lipid-nucleic acid mixture, gavage group, relative amount of PGY-sRNA-26 delivered to organs over time; assay type: in vivo, C57BL/6 male mice; conditions: sampled at 3, 6, 9, 12, 24 hrs
Experimental: as §1, §2
as §3, with “administered or injected via the tail vein” for “administered”, “mouse. The oral dose was half that of the tail vein injection.” for “mouse.”
as §4
2) Gavage group: Mice (n=15) were given 200 μl of the lipid-nucleic acid mixture prepared in step 2 by gavage.
as §5, §6, §7, §8, §9

[4] = significant difference compared to the control, 100 μg lipid:1 nmol PGY-sRNA-26, 12 hrs

1-palmitoyl-2-hydroxy-sn-glycero-3-phosphate (sodium salt) [Lipid 96]
oral delivery of sRNA single-chain nucleic acid into the blood, and lung, kidney, spleen, heart, and intestinal tissue of mice [1]: can effectively orally deliver | number of organs into which nucleic acid is significantly delivered [1]: two organs | oral delivery of sRNA single-stranded nucleic acid into the kidney tissue of mice [1, 4]: can significantly efficiently orally deliver | oral delivery of sRNA single-stranded nucleic acid into the spleen tissue of mice [1, 4]: can significantly efficiently orally deliver | time at which amount of nucleic acid delivered into the brain tissue reaches a maximum value [2]: 6 h | time at which amount of nucleic acid delivered into the heart tissue reaches a maximum value [2]: 9 h | time at which amount of nucleic acid delivered into the intestinal tissue reaches a maximum value [2]: 6 h | time at which amount of nucleic acid delivered into the kidney tissue reaches a maximum value [2]: 3 h | time at which amount of nucleic acid delivered into the liver tissue reaches a maximum value [2]: 3 h | time at which amount of nucleic acid delivered into the lung tissue reaches a maximum value [2]: 6 h | time at which amount of nucleic acid delivered into the intestinal tissue reaches a maximum value [3]: 3 h | time at which amount of nucleic acid delivered into the kidney tissue reaches a maximum value [3]: 3 h

CCCCCCCCCCCCC/C=C/[C@@H](O)[C@@H](N)CO [Lipid 98, D-erythro-sphingosine]
oral delivery of sRNA single-chain nucleic acid into the blood, and lung, kidney, spleen, heart, and intestinal tissue of mice [1]: can effectively orally deliver | overall nucleic acid delivery performance among the lipids ([1]; across the 6 organs in the experiments): most significant delivery performance | oral delivery of sRNA single-stranded nucleic acid into the kidney tissue of mice [1, 4]: can significantly efficiently orally deliver | oral delivery of sRNA single-stranded nucleic acid into the lung tissue of mice [1, 4]: can significantly efficiently orally deliver | oral delivery of sRNA single-stranded nucleic acid into the spleen tissue of mice [1, 4]: can significantly efficiently orally deliver

CCCCCCCC/C=C\CCCCCCCC(=O)OC[C@H](COP(=O)([O-])OCC[N+](C)(C)C)OC(=O)CCCCCCC/C=C\CCCCCCCC [Lipid 117, 1,2-bis-(9Z-octadecenoyl)-sn-glycero-3-phosphocholine]
oral delivery of sRNA single-chain nucleic acid into the blood, and lung, kidney, spleen, heart, and intestinal tissue of mice [1]: can effectively orally deliver

CCCCCCCCCCCCCCCCCC(=O)OCC(O)COC(=O)CCCCCCCCCCCCCCC (stereo not shown) [Lipid 111, 1-palmitin-3-stearin]
oral delivery of sRNA single-chain nucleic acid into the blood, and lung, kidney, spleen, heart, and intestinal tissue of mice [1]: can effectively orally deliver

CCCCCCCCC=CCCCCCCCC(=O)OCC(COC(=O)CCCCCCCCCCCCCCCCCCCCC)OC(=O)CCCCCCCC=CCCCCCCCC (stereo not shown) [Lipid 79, 1,2-olein-3-behenin]
oral delivery of sRNA single-chain nucleic acid into the blood, and lung, kidney, spleen, and heart tissues of mice [1]: can effectively orally deliver | oral delivery of sRNA single-stranded nucleic acid into the spleen tissue of mice [1, 4]: can significantly efficiently orally deliver

CCCCCCCC/C=C\CCCCCCCC(=O)OC[C@H](COP(=O)([O-])OCC(O)CO)OC(=O)CCCCCCC/C=C\CCCCCCCC.[Na+] (stereo partly shown) [Lipid 81, 1,2-dioleoyl-sn-glycero-3-phosphatidylglycerol sodium salt]
oral delivery of sRNA single-chain nucleic acid into the blood, and lung, kidney, spleen, and heart tissues of mice [1]: can effectively orally deliver | oral delivery of sRNA single-stranded nucleic acid into the spleen tissue of mice [1, 4]: can significantly efficiently orally deliver

1-O-octadecyl-2-hydroxy-sn-glycero-3-phosphocholine [Lipid 94]
oral delivery of sRNA single-chain nucleic acid into the blood, and lung, kidney, spleen, heart, and intestinal tissue of mice [1]: can effectively orally deliver | number of organs into which nucleic acid is significantly delivered [1]: two organs | oral delivery of sRNA single-stranded nucleic acid into the kidney tissue of mice [1, 4]: can significantly efficiently orally deliver | oral delivery of sRNA single-stranded nucleic acid into the lung tissue of mice [1, 4]: can significantly efficiently orally deliver | time at which amount of nucleic acid delivered into the brain tissue reaches a maximum value [2]: 6 h | time at which amount of nucleic acid delivered into the gastric tissue reaches a maximum value [2]: 3 h | time at which amount of nucleic acid delivered into the intestinal tissue reaches a maximum value [2]: 6 h | time at which amount of nucleic acid delivered into the kidney tissue reaches a maximum value [2]: 9 h | time at which amount of nucleic acid delivered into the spleen tissue reaches a maximum value [2]: 6 h | time at which amount of nucleic acid delivered into the brain tissue reaches a maximum value [3]: 3 h | time at which amount of nucleic acid delivered into the gastric tissue reaches a maximum value [3]: 3 h | time at which amount of nucleic acid delivered into the heart tissue reaches a maximum value [3]: 3 h | time at which amount of nucleic acid delivered into the intestinal tissue reaches a maximum value [3]: 3 h | time at which amount of nucleic acid delivered into the kidney tissue reaches a maximum value [3]: 9 h | time at which amount of nucleic acid delivered into the lung tissue reaches a maximum value [3]: 9 h | time at which amount of nucleic acid delivered into the spleen tissue reaches a maximum value [3]: 3 h

N-stearoyl-D-erythro-sphingosylphosphocholine [Lipid 104]
oral delivery of sRNA single-chain nucleic acid into the blood, and lung, kidney, spleen, heart, and intestinal tissue of mice [1]: can effectively orally deliver | oral delivery of sRNA single-stranded nucleic acid into the blood of mice [1, 4]: can significantly efficiently orally deliver

CCCCCCCCC/C=C/[C@@H](O)[C@@H](N)CO [Lipid 99, D-erythro-sphingosine (C14 group)]
oral delivery of sRNA single-chain nucleic acid into the blood, and lung, kidney, spleen, heart, and intestinal tissue of mice [1]: can effectively orally deliver | oral delivery of sRNA single-stranded nucleic acid into the spleen tissue of mice [1, 4]: can significantly efficiently orally deliver

N-palmitoleoyl-D-erythro-sphingosylphosphocholine [Lipid 103]
oral delivery of sRNA single-chain nucleic acid into the blood, and lung, kidney, spleen, heart, and intestinal tissue of mice [1]: can effectively orally deliver | oral delivery of sRNA single-stranded nucleic acid into the lung tissue of mice [1, 4]: can significantly efficiently orally deliver

CCCCCCCCCCCCCCCCOC[C@H](COP(=O)([O-])OCC[N+](C)(C)C)OC(C)=O [Lipid 85, β-acetyl-γ-O-alkyl-L-α-phosphatidylcholine]
oral delivery of sRNA single-chain nucleic acid into the blood, and lung, kidney, spleen, heart, and intestinal tissue of mice [1]: can effectively orally deliver
